Ends that are not written are not given here.
Legend:
[1] = test system: gamma interferon-induced NO production in epidermal keratinocytes; experiment: Inhibition of gamma interferon-induced nitric oxide production in keratinocytes (Griess reaction); assay type: cell-based; details: positive control, aminoguanidine 10 mg/mL plus gamma interferon
Description: The study method chosen is similar to that published in the reference Tsai et al. (Tsai et al, Inhibition of inflammatory nitric oxide production and epidermis damages by Saccharomycopsis Ferment Filtrate. J Dermatol Sci 2006 June 42 (3): 249-57. Laskin, Multifunctional Role of Nitric Oxide in Inflammation, Trends Endocrinol Metab 1994; 5:377-382. Lyons, Emerging Roiles of Nitric Oxide in Inflammation, Hospital Practice, Jul. 15, 1996: 69-86.)
The objective of the study was to investigate the inhibition effect of Pal-hexapeptide (SEQ ID NO: 2, in palmitylated form) on gamma interferon-induced NO production in epidermal keratinocytes in culture.
Anti-inflammatory effect was observed as a reduction of nitric oxide production in keratinocytes. Keratinocytes were incubated 48 hours with gamma-interferon (300 U/ml) alone (as control) or with gamma-interferon together with different concentrations (0.1 μM, 1 μM, 10 μM, 100 μM and 1000 μM) of Pal-hexapeptide. Gamma interferon plus aminoguanidine (10 mg/mL) was used as positive control. The amount of NO production was detected by Griess reaction. Nitric oxide readily oxides to nitrite in aqueous medium, and this reaction was measured as nitrite accumulation in the medium. […] The optical density of the wells were read using a Tibertek Mutiskan (MCC microplate reader at a wavelength of 540 nm, subtracting the absorbance at a reference wavelength of 620 nm.) A printout of the absorbance values was generated by the plate reader, and data were entered into an EXCEL spreadsheet for analysis. The average absorbance and standard deviations were expressed as percent of control absorbances.

[2] = test system: UVA-bleaching of beta-carotene; experiment: UVA bleaching of beta-carotene on forearm skin, Color Index by CHROMAMETER; assay type: in vivo, human; details: human forearm
Experimental: In-vivo method for assessing the protective effects of cosmetic products. Bleaching of carotenoids have been used to evaluate the auto-oxidation activity of natural products. The relative efficacy of scavengers of lipid peroxyl free radicals after application to the skin was assessed by measuring the UVA-bleaching of beta-carotene as a function of the energy exposure.
A CHROMAMETER colorimeter (TM, Minolta Model CR-300) was used to measure changes in color by expressing the color of measured surfaces numerically in L*a*b* color space which is a system recommended by the CIE (Commission Internationale de I'Eclairage) for skin color assessment. In this color space, L* is the luminance and gives the relative brightness from total black (L*=0) to total white (L*=100). The a* value represents the balance between the reds (positive values) and the greens (negative values). The b* value represents the balance between the yellows (positive values) and the blues (negative values). The b* value most closely describes the intensity of the orange color of the β-carotene stain and is in direct correlation with the Color Index, I. The CHROMAMETER provides a means by which oxidative damage caused by free radicals and, conversely, the prevention of oxidation by free radical scavengers, can be measured. Free radical oxidation induced by UVA radiation elicits a bleaching and reduction of color of beta-carotene stain. The bleaching and prevention of bleaching by a test material can be measured by the CHROMAMETER. Bleaching is reported as the change in b* versus UVA Irradiation Energy. It can also be expressed in terms of a Color Index, I, defined as: I=[(bn*−bi*)/(b0*−bi*)]×100 where, bn* is the value of b* measured after n J/cm^2 of irradiation of the area treated with the cosmetic formulation and painted with the β-carotene; b0* is the value of b* after application of the beta-carotene but before irradiation; and bi* is the value of b* before application of the beta-carotene. This index compensates for any effects of skin color on bn* and b0*. Bleaching will cause bn* value and I value (as a percentage) to decrease. Prevention of bleaching will result in higher I values or less reduction in I value when exposed to radiation.
The designated forearm of impaneled subjects was cleansed with a 70% isopropyl alcohol prep pad (Medium, Dynarex) and allowed to dry. Test sites were selected on the volar surface of the designated forearm of each subject, with each test site defined by the open, central area of a self-adhesive ring (Professional ProFoot™ Products, P.P.R. Co, Inc.). The adhesive side of the rings were placed directly on the skin. The rings were used to retain the test material and beta-carotene solution as well as to function as a guide for taking measurements with the CHROMAMETER.
Gel formulations (0.1% Pal-hexapeptide) and (0.1% hexapeptide) were applied to the forearm according to a randomized schedule. Additional sites were treated with a beta-carotene control, a positive control (internal control) and an untreated control. Treatment of the test sites were randomized for each subject.
Prior to application of the test materials or beta-carotene, the initial b* parameter was measured using the CHROMAMETER and recorded for all duplicate test sites of the forearm (Baseline). Approximately 2 mg/cm^2 of each material was applied to the designated test site and spread manually with a finger cot to ensure even distribution. Sites designated as untreated, with or without beta-carotene, remained untreated at this time. The test materials and internal control were allowed to incubate with the skin surface for a period of fifteen (15) minutes. After this incubation period, b* measurements were recorded for all sites (Product Baseline).
A solution of beta-carotene in a mixture of capric and caprylic triglycerides was applied to all treated sites. The b* parameter is again measured and recorded (beta-carotene Baseline). […]

[3] = test system: cellular peroxide levels in human epidermal keratinocytes; experiment: Cellular peroxide levels in keratinocytes, DCFH-DA dye and flow cytometry, with and without exogenous H2O2; assay type: cell-based
Experimental: Hydrogen peroxide can induce damages to skin cells. The dermal protective efficacy of Pal-hexapeptide was assessed by measuring basal peroxide levels in the presence and absence of the compound.
Basal peroxide production, generated by normal cellular metabolism, induce gradual development of low levels of peroxide-specific cellular fluorescence.
Extracellular peroxides (e.g., H2O2 added exogenously) can permeate the cell membrane and cause a rapid and dramatic increase in the peroxide-specific fluorescence of the cell. Cellular peroxides levels can be measured by flow cytometry using the peroxide-specific dye, 2′,7′-dichlorofluorescein diacetate (DCFH-DA). DCFH-DA is initially non-fluorescent and is rapidly concentrated within living cells by an enzyme-dependent process. […] The results of the assay indicates if a test compound functions as an oxidant or an anti-oxidant in a cellular system. If the test article functions as an anti-oxidant, this assay can also be used to determine if the test compound can permeate the cell membrane to quench intracellular peroxide or if it can only affect extracellular peroxide levels (Bass et al., 1983, J. Immunol. 130:1910-1917; Bombick et al., 1992, Toxicol. Meth. 2:255-264).
Human primary keratinocytes, generally on the third passage, were seeded in T75 flasks and cultured until 70-80% confluent. A cell suspension was created and these cells were loaded with the dye DCFH-DA. The pre-incubated cells were exposed to dilutions of the Pal-hexapeptide having the amino acid sequence SEQ ID NO: 2 in two triplicate sets per dilution. One triplicate set was incubated with H2O2 (exogenous source of peroxide), and both sets were stained with Propidium Iodide. Cell viability and peroxide production were determined by fluorescence readings on a FACScan flow cytometer. Peroxide value increases or decreases of 25% or more compared to vehicle control values are considered biologically significant.

Row | Molecule | % Control (no H2O2), peroxide level ([3]; 0.1 mM, endogenous peroxide) [%] | % Control (with H2O2), peroxide level ([3]; 0.1 mM, exogenous H2O2 added) [%] | % Control (no H2O2), peroxide level ([3]; 1 mM, endogenous peroxide) [%] | % Control (with H2O2), peroxide level ([3]; 1 mM, exogenous H2O2 added) [%] | exogenous peroxide level (as defined by the 25% cutoff), in words ([3]; 1 mM, exogenous H2O2 added) | % Control (no H2O2), peroxide level ([3]; 10 mM, endogenous peroxide) [%] | endogenous peroxide level (as defined by the 25% cutoff), in words ([3]; 10 mM, endogenous peroxide) | % Control (with H2O2), peroxide level ([3]; 10 mM, exogenous H2O2 added) [%] | exogenous peroxide level (as defined by the 25% cutoff), in words ([3]; 10 mM, exogenous H2O2 added) | % Control (no H2O2), peroxide level ([3]; 0.01 mM, endogenous peroxide) [%] | % Control (with H2O2), peroxide level ([3]; 0.01 mM, exogenous H2O2 added) [%] | other results
1 | N=C(N)NN [AG, aminoguanidine, reference compound] |  |  |  |  |  |  |  |  |  |  |  | nitric oxide production induced by Gamma-interferon, % of the control [1]: 42%; nitric oxide production induced by Gamma-interferon, % of the control ([1]; listed as positive control): 25%
2 | CC1=C(/C=C/C(C)=C/C=C/C(C)=C/C=C/C=C(C)/C=C/C=C(C)/C=C/C2=C(C)CCCC2(C)C)C(C)(C)CCC1 [PC (beta-carotene), beta-carotene] |  |  |  |  |  |  |  |  |  |  |  | average Color Index Value ([2]; UVA energy 0 J/cm^2): 100%; average Color Index Value ([2]; UVA energy 1 J/cm^2): 36%; average Color Index Value ([2]; UVA energy 2 J/cm^2): 27%; average Color Index Value ([2]; UVA energy 3 J/cm^2): 23%; average Color Index Value ([2]; UVA energy 4 J/cm^2): 16%; average Color Index Value ([2]; UVA energy 5 J/cm^2): 14%; average Color Index Value ([2]; UVA energy 6 J/cm^2): 13%
3 | Cc1c(C)c2c(c(C)c1O)CCC(C)(C(=O)O)O2 (stereo not shown) [Trolox, reference compound] |  |  |  |  |  |  |  |  |  |  |  | peroxide level, % of the control, endogenous peroxide assay without exogenous H2O2 ([3]; positive control, 300 μM, endogenous peroxide): 69.79%; peroxide level, % of the control, assay with exogenous added peroxide ([3]; positive control, 300 μM, exogenous H2O2 added): 24.97%
4 | FSR [CS2307] | 98.7 | 95.5 | 60.6 | 62.5 | decreased | −8.5 | decreased | −1.5 | decreased |  |  | endogenous peroxide level (as defined by the 25% cutoff), in words ([3]; 1 mM, endogenous peroxide): decreased; % Control (no H2O2), peroxide level ([3]; 10 mM, endogenous peroxide, listed as MNTF 3-mer): 0%; % Control (with H2O2), peroxide level ([3]; 10 mM, exogenous H2O2 added, listed as MNTF 3-mer): 0%
5 | FSRY [CS2308] | 98.6 | 84.5 | 77.2 | 54.9 | decreased | 25.2 | decreased | −5.8 | decreased |  |  | % Control (no H2O2), peroxide level ([3]; 10 mM, endogenous peroxide, listed as MNTF 4-mer): 0%; % Control (with H2O2), peroxide level ([3]; 10 mM, exogenous H2O2 added, listed as MNTF 4-mer): 25.2%
6 | FSRYA [CS2309] | 103.3 | 87.2 | 61.6 | 46.2 | decreased | 3.6 | decreased | −5.9 | decreased |  |  | endogenous peroxide level (as defined by the 25% cutoff), in words ([3]; 1 mM, endogenous peroxide): decreased; % Control (with H2O2), peroxide level ([3]; 10 mM, exogenous H2O2 added, listed as MNTF 5-mer): 0%
7 | FSRYAR [GM602, FSRYAR] | 94.9 | 92.9 | 73.6 | 56.0 |  | 25.0 |  | 14.3 |  |  |  | Cell viability, expressed as % of non-viable, treated versus not treated cells ([3]; keratinocytes, Propidium Iodide staining): about the same
8 | Pal 3 mer: palmitylated form of the MNTF 3 mer (SEQ ID NO:9) (Phe-Ser-Arg; also: palmitoyl group) | 98.7 | 96.1 | 101.1 | 71.9 | decreased |  |  |  |  | 99.4 | 101.0 | 
9 | Pal 4mer: palmitylated form of the MNTF 4 mer (SEQ ID NO:11) (FSRY; also: palmitoyl group) | 96.8 | 96.6 | 81.8 | 67.2 | decreased |  |  |  |  | 97.2 | 102.4 | 
10 | Pal 5 mer: palmitylated form of the MNTF 5 mer (SEQ ID NO:17) (FSRYA; also: palmitoyl group) | 92.8 | 96.0 | 83.6 | 62.2 | decreased |  |  |  |  | 95.3 | 98.6 | 
